# Values joined by “and” are separate entries in the source; they are usually repeats but may differ in a detail not shown here. Equal values may be shown once.
# Columns and labels:
# Format in all cases: cell-based, human
# UMPS knockout T cells = assay: Cell counts after recovery post-electroporation; details: 4 days recovery post electroporation, no serum, with 5-FOA
# Procedure: (§1) K562 cells (acquired from ATCC) and Nalm6 cells (kindly provided by C. Mackall) were cultured in RPMI 1640 (HyClone) supplemented with 10% bovine growth serum, 2 mM L-glutamine and 100 U/ml Penicillin and 100 U/ml Streptomycin. T cells were either used fresh after isolation from buffy coats obtained from healthy donors. T cells were isolated through a Ficoll density gradient centrifugation followed by magnetic enrichment using the Pan T Cell Isolation Kit (Miltenyi Biotec).
# (§2) Cells were cryopreserved in BAMBANKER™ medium. After thawing cells were cultured at 37° C., 5% CO2 in X-Vivo 15 (Lonza) supplemented with or without 5% human serum (Sigma-Aldrich) and […] recombinant IL-2 (Peprotech) and 10 ng/ml human recombinant IL-7 (BD Biosciences). […]
# (§3) Genomic DNA was harvested using QUICKEXTRACT™ DNA Extraction Kit (Epicentre). Cells were counted on an automated cell counter using Trypan blue staining or on a CytoFLEX flow cytometer (Beckman Coulter) with automatic plate reader using COUNTBRIGHT™ beads (ThermoFisher) as a reference for normalizing the values. Alternatively, cells were analyzed after staining with fluorochrome-labelled antibodies (Biolegend) on an ACCURI™ C6 flow cytometer (BD Biosciences), which also measures volumes, or a FACS ARIA™ II SORP cell sorter (BD Biosciences). Data was analyzed using Excel (Microsoft) and FlowJo software (Tree Star). […]
# mock edited T cells = assay: Cell counts after recovery post-electroporation; details: 4 days recovery post electroporation, no serum, with 5-FOA
# Procedure: as §1, §2, §3
# [1] = test system: UMPS^KO/KO/GFP^+ K562 cells mixed with UMPS^WT/WT K562 cells; assay: 5-FOA resistance in mixed K562 culture; details: for Percentages of GFP+ cells, Day 1 / Percentages of GFP+ cells, Day 2 / Percentages of GFP+ cells, Day 3 / Percentages of GFP+ cells, Day 4 / Percentages of GFP+ cells, Day 6 / Percentages of GFP+ cells, Day 8: with Uridine
# Procedure: To determine the resistance of UMP S knockout cells to 5-FOA the purified uMPS^KO/KO/GFP^+ K562 cells were mixed at an equal ratio with UMPS^wT/WT/GFP-negative K562 cells. The cells were cultured in the presence of Uridine and different concentrations of 5-FOA (FIG. 6F).
# UMPS-WT Nalm6 cells = assay: Growth curves of Nalm6 cells with uridine; details: for Cell counts, Day 0 / Cell counts, Day 1 / Cell counts, Day 2 / Cell counts, Day 3 / Cell counts, Day 4 / Cell counts, Day 5 / Cell counts, Day 6 / Cell counts, Day 7: UMPS-WT
# Procedure: (§4) The same experiment was performed with Nalm6 cells and a similar dependency on the uridine concentration in the culture was observed that was not visible for cells with intact UMPS. Table 25 provides data of growth curves of UMPS^KO/KO Nalm6 cells cultured with different uridine concentrations. No difference was observed between the groups receiving uridine supplement treatment and those not for wild-type cells.
# UMPS^KO/KO Nalm6 cells = assay: Growth curves of Nalm6 cells with uridine; details: for Cell counts, Day 0 / Cell counts, Day 1 / Cell counts, Day 2 / Cell counts, Day 3 / Cell counts, Day 4 / Cell counts, Day 5 / Cell counts, Day 6 / Cell counts, Day 7: UMPS^KO/KO
# Procedure: as §4
smiles,measurement,setting,value
"O=C(O)c1[nH]c(=O)[nH]c(=O)c1F [5-FOA, 5-fluoroorotic acid]",Intact cells (absolute),UMPS knockout T cells,395
same,Intact cells (absolute),mock edited T cells,580
same,"Number of GFP + cells per μl, Day 1",[1]; 10 ug/ml 5-FOA,87013.04 cells per μl
same,"Number of GFP + cells per μl, Day 2",[1]; 10 ug/ml 5-FOA,163245.74 cells per μl
same,"Number of GFP + cells per μl, Day 4",[1]; 10 ug/ml 5-FOA,569281.05 cells per μl
same,"Number of GFP + cells per μl, Day 6",[1]; 10 ug/ml 5-FOA,550780.31 cells per μl
same,"Number of GFP + cells per μl, Day 8",[1]; 10 ug/ml 5-FOA,719624.13 cells per μl
same,"Percentages of GFP+ cells, Day 1",[1]; 10 ug/ml 5-FOA,45.4% and 48.5%
same,"Percentages of GFP+ cells, Day 2",[1]; 10 ug/ml 5-FOA,54.7% and 56.8%
same,"Percentages of GFP+ cells, Day 3",[1]; 10 ug/ml 5-FOA,65.6% and 64.0%
same,"Percentages of GFP+ cells, Day 4",[1]; 10 ug/ml 5-FOA,64.8% and 69.7%
same,"Percentages of GFP+ cells, Day 6",[1]; 10 ug/ml 5-FOA,79.1% and 76.5%
same,"Percentages of GFP+ cells, Day 8",[1]; 10 ug/ml 5-FOA,85.0% and 79.8%
same,"Number of GFP + cells per μl, Day 1",[1]; 100 ug/ml 5-FOA,115272.35 cells per μl
same,"Number of GFP + cells per μl, Day 2",[1]; 100 ug/ml 5-FOA,106377.73 cells per μl
same,"Number of GFP + cells per μl, Day 4",[1]; 100 ug/ml 5-FOA,376993.53 cells per μl
same,"Number of GFP + cells per μl, Day 6",[1]; 100 ug/ml 5-FOA,501940.62 cells per μl
same,"Number of GFP + cells per μl, Day 8",[1]; 100 ug/ml 5-FOA,693093.53 cells per μl
same,"Percentages of GFP+ cells, Day 1",[1]; 100 ug/ml 5-FOA,52.6% and 48.9%
same,"Percentages of GFP+ cells, Day 2",[1]; 100 ug/ml 5-FOA,67.1% and 64.2%
same,"Percentages of GFP+ cells, Day 3",[1]; 100 ug/ml 5-FOA,79.5% and 71.4%
same,"Percentages of GFP+ cells, Day 4",[1]; 100 ug/ml 5-FOA,85.2% and 74.4%
same,"Percentages of GFP+ cells, Day 6",[1]; 100 ug/ml 5-FOA,92.1% and 86.2%
same,"Percentages of GFP+ cells, Day 8",[1]; 100 ug/ml 5-FOA,92.8% and 82.8%
same,"Number of GFP + cells per μl, Day 1",[1]; 1000 ug/ml 5-FOA,75925.72 cells per μl
same,"Number of GFP + cells per μl, Day 2",[1]; 1000 ug/ml 5-FOA,79080.77 cells per μl
same,"Number of GFP + cells per μl, Day 4",[1]; 1000 ug/ml 5-FOA,151010.55 cells per μl
same,"Number of GFP + cells per μl, Day 6",[1]; 1000 ug/ml 5-FOA,217794.10 cells per μl
same,"Number of GFP + cells per μl, Day 8",[1]; 1000 ug/ml 5-FOA,339282.35 cells per μl
same,"Percentages of GFP+ cells, Day 1",[1]; 1000 ug/ml 5-FOA,51.9% and 49.4%
same,"Percentages of GFP+ cells, Day 2",[1]; 1000 ug/ml 5-FOA,65.0% and 58.9%
same,"Percentages of GFP+ cells, Day 3",[1]; 1000 ug/ml 5-FOA,72.9% and 66.9%
same,"Percentages of GFP+ cells, Day 4",[1]; 1000 ug/ml 5-FOA,82.0% and 77.7%
same,"Percentages of GFP+ cells, Day 6",[1]; 1000 ug/ml 5-FOA,92.6% and 90.5%
same,"Percentages of GFP+ cells, Day 8",[1]; 1000 ug/ml 5-FOA,90.1% and 75.7%
same,proliferation of UMPS knockout cells in 5-FOA,[1]; 10 and 100 μg/ml 5-FOA,proliferated well
same,fraction of UMPS^KO/KO cells,[1]; all 5-FOA concentrations used,increased over time
same,cell growth of UMPS knockout cells in 5-FOA,[1]; highest concentration (1000 ug/ml),slowed their cell growth down
O=c1ccn([C@@H]2O[C@H](CO)[C@@H](O)[C@H]2O)c(=O)[nH]1 [Uridine],"Cell counts, Day 0",UMPS-WT Nalm6 cells; 2.5 ug/ml uridine,20052 and 19661 and 21142
same,"Cell counts, Day 1",UMPS-WT Nalm6 cells; 2.5 ug/ml uridine,35088 and 34130 and 28986
same,"Cell counts, Day 2",UMPS-WT Nalm6 cells; 2.5 ug/ml uridine,67340 and 38314 and 62598
same,"Cell counts, Day 3",UMPS-WT Nalm6 cells; 2.5 ug/ml uridine,156019 and 153257 and 137812
same,"Cell counts, Day 4",UMPS-WT Nalm6 cells; 2.5 ug/ml uridine,244368 and 225750 and 338624
same,"Cell counts, Day 5",UMPS-WT Nalm6 cells; 2.5 ug/ml uridine,923391 and 1119256 and 1148582
same,"Cell counts, Day 6",UMPS-WT Nalm6 cells; 2.5 ug/ml uridine,2017336 and 3269476
same,"Cell counts, Day 7",UMPS-WT Nalm6 cells; 2.5 ug/ml uridine,3869992 and 6117085 and 6538953
same,"Cell counts, Day 0",UMPS-WT Nalm6 cells; 25 μg/ml uridine,27548 and 19505 and 36496
same,"Cell counts, Day 1",UMPS-WT Nalm6 cells; 25 μg/ml uridine,31847 and 39683 and 40000
same,"Cell counts, Day 2",UMPS-WT Nalm6 cells; 25 μg/ml uridine,70922 and 70175 and 68027
same,"Cell counts, Day 3",UMPS-WT Nalm6 cells; 25 μg/ml uridine,214190 and 194185 and 174292
same,"Cell counts, Day 4",UMPS-WT Nalm6 cells; 25 μg/ml uridine,447240 and 311891 and 376249
same,"Cell counts, Day 5",UMPS-WT Nalm6 cells; 25 μg/ml uridine,1413856 and 1173622 and 1216000
same,"Cell counts, Day 6",UMPS-WT Nalm6 cells; 25 μg/ml uridine,3792593 and 2708995
same,"Cell counts, Day 7",UMPS-WT Nalm6 cells; 25 μg/ml uridine,6320988 and 5746352 and 7585185
same,"Cell counts, Day 0",UMPS-WT Nalm6 cells; 250 μg/ml uridine,17980 and 24390
same,"Cell counts, Day 1",UMPS-WT Nalm6 cells; 250 μg/ml uridine,33784 and 40000
same,"Cell counts, Day 2",UMPS-WT Nalm6 cells; 250 μg/ml uridine,59524 and 58737
same,"Cell counts, Day 3",UMPS-WT Nalm6 cells; 250 μg/ml uridine,167715 and 160160
same,"Cell counts, Day 4",UMPS-WT Nalm6 cells; 250 μg/ml uridine,303894 and 213547
same,"Cell counts, Day 5",UMPS-WT Nalm6 cells; 250 μg/ml uridine,1163678 and 1115507
same,"Cell counts, Day 6",UMPS-WT Nalm6 cells; 250 μg/ml uridine,3511660 and 3058542
same,"Cell counts, Day 7",UMPS-WT Nalm6 cells; 250 μg/ml uridine,7293447
same,growth with vs without uridine supplement,UMPS-WT Nalm6 cells; wild-type cells,No difference
same,"Cell counts, Day 0",UMPS^KO/KO Nalm6 cells; 2.5 μg/ml uridine,20121 and 29155 and 28090
same,"Cell counts, Day 1",UMPS^KO/KO Nalm6 cells; 2.5 μg/ml uridine,42194 and 38023 and 40650
same,"Cell counts, Day 2",UMPS^KO/KO Nalm6 cells; 2.5 μg/ml uridine,69808 and 88300 and 87146
same,"Cell counts, Day 3",UMPS^KO/KO Nalm6 cells; 2.5 μg/ml uridine,70287 and 70547 and 78663
same,"Cell counts, Day 4",UMPS^KO/KO Nalm6 cells; 2.5 μg/ml uridine,80625 and 81737 and 79012
same,"Cell counts, Day 5",UMPS^KO/KO Nalm6 cells; 2.5 μg/ml uridine,193482 and 188952 and 193913
same,"Cell counts, Day 6",UMPS^KO/KO Nalm6 cells; 2.5 μg/ml uridine,380782 and 383866 and 377748
same,"Cell counts, Day 7",UMPS^KO/KO Nalm6 cells; 2.5 μg/ml uridine,755497 and 796763 and 793429
same,"Cell counts, Day 0",UMPS^KO/KO Nalm6 cells; 25 μg/ml uridine,14984 and 18952 and 14400
same,"Cell counts, Day 1",UMPS^KO/KO Nalm6 cells; 25 μg/ml uridine,21277 and 25189 and 19688
same,"Cell counts, Day 2",UMPS^KO/KO Nalm6 cells; 25 μg/ml uridine,69085 and 68027 and 71301
same,"Cell counts, Day 3",UMPS^KO/KO Nalm6 cells; 25 μg/ml uridine,142944 and 176018 and 189125
same,"Cell counts, Day 4",UMPS^KO/KO Nalm6 cells; 25 μg/ml uridine,388585 and 324708 and 395062
same,"Cell counts, Day 5",UMPS^KO/KO Nalm6 cells; 25 μg/ml uridine,1624178 and 1360329
same,"Cell counts, Day 6",UMPS^KO/KO Nalm6 cells; 25 μg/ml uridine,3646724 and 3386243 and 3792593
same,"Cell counts, Day 7",UMPS^KO/KO Nalm6 cells; 25 μg/ml uridine,7293447 and 5746352 and 6538953
same,"Cell counts, Day 0",UMPS^KO/KO Nalm6 cells; 250 μg/ml uridine,20704 and 24510 and 29762
same,"Cell counts, Day 1",UMPS^KO/KO Nalm6 cells; 250 μg/ml uridine,37175 and 35461 and 30769
same,"Cell counts, Day 2",UMPS^KO/KO Nalm6 cells; 250 μg/ml uridine,101781 and 106667 and 112045
same,"Cell counts, Day 3",UMPS^KO/KO Nalm6 cells; 250 μg/ml uridine,210805 and 265340 and 257649
same,"Cell counts, Day 4",UMPS^KO/KO Nalm6 cells; 250 μg/ml uridine,551249 and 564374
same,"Cell counts, Day 5",UMPS^KO/KO Nalm6 cells; 250 μg/ml uridine,2072099 and 2343280 and 1844675
same,"Cell counts, Day 6",UMPS^KO/KO Nalm6 cells; 250 μg/ml uridine,3792593 and 4514991 and 4122383
same,"Cell counts, Day 7",UMPS^KO/KO Nalm6 cells; 250 μg/ml uridine,7585185 and 6320988 and 7901235
same,growth,"UMPS^KO/KO Nalm6 cells; groups supplemented with uridine, especially 25 and 250 μg/ml",Significantly greater growth

# Source: patent publication US20210052741A1, “GENE THERAPY METHODS AND COMPOSITIONS USING AUXOTROPHIC REGULATABLE CELLS” (AUXOLYTIC LTD, priority 2018, published 2021)
